Measured values reported in paper PMC7041945, “Misfolded proteins bind and activate death receptor 5 to trigger apoptosis during unresolved endoplasmic reticulum stress” (eLife, 2020).

Legend:
HCT116 cells = assay: Annexin V (and SytoxBlue) flow cytometry for apoptosis; format: cell-based, Homo sapiens
Procedure: Cells seeded in a 6-well plate were transfected with the specified plasmid for 24 hr and harvested via trypsinization in complete media to allow a 30 min recovery at 37°C. The samples were then centrifuged at 500xg for 5 min and resuspended In 150 μl of a 1:20 dilution of Annexin V-AlexaFluor 647 conjugate (Thermo Scientific #A23204). Samples were transferred to a 96-well U-bottom plate and incubated in the dark for 15 min at RT. The distribution of apoptotic cells was determined by flow cytometry on a BD LSR II.

[1] = tested on: XBP1 mRNA in HCT116 cells; assay: RT-PCR for Xbp1 mRNA splicing; format: cell-based, Homo sapiens; details: HCT116, 24 hr
Procedure: Cells were grown in 6-well plates and harvested with 0.5 ml of TRIzol reagent (Life Technologies) per manufacturer's protocol to extract RNA. […] The reverse transcription product was diluted to 200 μl with 10 mM Tris-HCl pH 8.2 and used at 1:100 dilution for subsequent RT-PCR reactions. 2 μl of cDNA was added to 0.2 μM of forward and reverse primers ([…]; Hs_XBP1_Rev: [NT]), 0.2 mM of each dNTP, 0.5 units of Taq DNA polymerase (Thermo Scientific). The reaction was set at an annealing temperature of 60.5°C with an extension time of 30 s for 26 cycles.

GFP (340+341) = assay: qPCR of GFP transcript (expression of GFP-tagged construct); format: cell-based; details: Rep 2; for avg. fold induction GFP (340+341) / fold induction GFP (340+341): relative to empty traffo
[2] = tested on: caspase 8 in HCT116 GFP-Trap immunoprecipitates; assay: Caspase 8 activity (caspase glo 8) of GFP immunoprecipitates (beads); format: cell-based, Homo sapiens
Procedure: (§1) 15 cm dishes were seeded with 4 million HCT116 cells and allowed to recover for 18 hr prior to transfection. Samples were then transfected for 24 hr with the GFP-tagged ER trafficked protein, cytosolic GFP, or empty vector. To harvest apoptotic and living cells for each sample, all media and washes were collected. Cells were scraped in 2 ml of cold PBS and combined with the media and washes. Samples were centrifuged to pellet cells, washed with 1 ml cold PBS, and flash frozen in liquid N2 prior to lysis.
(§2) The cell pellets were resuspended in 750 μl of 30 mM HEPES pH 7.2, 150 mM NaCl, 1% Triton X-100 with 1x Roche protease inhibitor cocktail (if used subsequently for caspase glo 8 assay) or with 5x Roche protease inhibitor cocktail (if used for immunoblotting). The cells were lysed by mechanical shearing through a 25G needle for 13–15 plunges followed by incubation on ice for 30 min. The lysate was centrifuged at 2000xg for 5 min to remove debris and then incubated with 30 μl of GFP-Trap magnetic agarose beads (Chromotek gtma-20) for 4 hr at 4°C. The beads were then washed with 750 μl of lysis buffer for 10 min at 4°C for three rounds.
For measuring caspase activity, a fifth of the beads was resuspended in 40 μl of 30 mM HEPES pH 7.2, 150 mM NaCl, 1% Triton X-100. 10 μl of the resuspended mixture was incubated with 10 ul of the caspase glo 8 luminogenic substrate (Promega #PRG8200) for 45 min at RT before measuring luminescence.

[3] = tested on: caspase 8 in HCT116 lysates; assay: Caspase 8 activity (caspase glo 8) of cell lysates / IP inputs; format: cell-based, Homo sapiens; details: for norm RLUs: rep 2, normalized by lysate quant
Procedure: Cells harvested from a 6-well plate were resuspended in 100 μl of lysis buffer (30 mM HEPES pH 7.2, 150 mM NaCl, 1% Triton X-100) and lysed via needle shearing (25G, 10 passes) followed by a 30 min incubation on ice. Supernatant was collected after centrifuging at 1000xg for 5 min. For the caspase activity assay, 10 μl of supernatant diluted with lysis buffer (1:25, 1:50, 1:100 to stay within linear range of luminescence measurements) was incubated with 10 μl of the luminogenic caspase glo 8 substrate (Promega #PRG8200) in a 384-white walled plate (Corning 3574) for 45 min at RT before measuring luminescence on a Spectramax-M5 plate reader.

DR5 = assay: GFP immunoprecipitation: DR5 (FADD, caspase 8) recovered with GFP-tagged protein, Western blot; format: cell-based, Homo sapiens; details: for fraction of DR5 IP'ed: GFP IP
Procedure: as §1, §2
For Western blots, samples were eluted by adding 35 μl of non-reducing SDS gel loading buffer (50 mM Tris-HCl (pH 6.8), 2% SDS, 0.1% bromophenol blue, 10% glycerol) and incubated for 10 min at 70°C. The beads were then magnetically removed from the eluted sample before adding DTT to a final concentration of 25 mM. The entire sample was loaded onto the gel and immunoblotted for DR5, caspase 8, and GFP, in that order.

## INS-GFP: GFP-tagged proinsulin expressed from plasmid
HCT116 cells; HCT116, transfected 24 hr, Nt or DR5 siRNA
  PARP cleavage and annexin V staining: induced PARP cleavage and annexin V staining in a DR5-dependent manner
HCT116 cells; siDR5, N=3
  Mean ± SEM (siDR5), Annexin V: 19 ± 1.7 N=3
HCT116 cells; siDR5 vs. siNt
  95% confidence interval of difference, Annexin V: -25 to -8.3
  Difference between means, Annexin V: -17 ± 2.9
HCT116 cells; siNt, N=3
  Mean ± SEM (siNt), Annexin V: 35 ± 2.4 N=3
[1]
  XBP1 mRNA splicing: induced XBP1 mRNA splicing
GFP (340+341); 3 hr, mean of 3 replicates
  avg. fold induction GFP (340+341): 6059.51
GFP (340+341); 3 hr, replicate 1
  fold induction GFP (340+341): 5553.44
  2^-(deltaCq) GFP (340+341): 0.9383
  Cq GFP (340+341): 19.2537
  Cq(sample) - avg Cq(GAPDH), GFP (340+341): 0.0918
GFP (340+341); 3 hr, replicate 2
  fold induction GFP (340+341): 6428.23
  2^-(deltaCq) GFP (340+341): 1.086
  Cq GFP (340+341): 19.0426
  Cq(sample) - avg Cq(GAPDH), GFP (340+341): -0.1192
GFP (340+341); 3 hr, replicate 3
  fold induction GFP (340+341): 6196.87
  2^-(deltaCq) GFP (340+341): 1.047
  Cq GFP (340+341): 19.0955
  Cq(sample) - avg Cq(GAPDH), GFP (340+341): -0.06635
GFP (340+341); 7 hr, mean of 3 replicates
  avg. fold induction GFP (340+341): 36312.6
GFP (340+341); 7 hr, replicate 1
  fold induction GFP (340+341): 36506.4
  2^-(deltaCq) GFP (340+341): 6.168
  Cq GFP (340+341): 16.6754
  Cq(sample) - avg Cq(GAPDH), GFP (340+341): -2.625
GFP (340+341); 7 hr, replicate 2
  fold induction GFP (340+341): 31765.4
  2^-(deltaCq) GFP (340+341): 5.3673
  Cq GFP (340+341): 16.8761
  Cq(sample) - avg Cq(GAPDH), GFP (340+341): -2.4242
GFP (340+341); 7 hr, replicate 3
  fold induction GFP (340+341): 40666.1
  2^-(deltaCq) GFP (340+341): 6.871
  Cq GFP (340+341): 16.5198
  Cq(sample) - avg Cq(GAPDH), GFP (340+341): -2.781
GFP (340+341); 24 hr, mean of 3 replicates
  avg. 2^-(deltaCq) GFP (340+341): 90.4075
GFP (340+341); 24 hr, replicate 1
  2^-(deltaCq) GFP (340+341): 82.5431
  Cq GFP (340+341): 13.3376
  Cq(sample) - avg Cq(GAPDH), GFP (340+341): -6.367
GFP (340+341); 24 hr, replicate 2
  2^-(deltaCq) GFP (340+341): 92.9155
  Cq GFP (340+341): 13.1668
  Cq(sample) - avg Cq(GAPDH), GFP (340+341): -6.538
GFP (340+341); 24 hr, replicate 3
  2^-(deltaCq) GFP (340+341): 95.7639
  Cq GFP (340+341): 13.1232
  Cq(sample) - avg Cq(GAPDH), GFP (340+341): -6.581
[2]; GFPTrap beads, relative to GFP, n=2
  Mean ± SEM (IP): 1.500 ± 0.1400, n=2
[2]; Rep 1
  fold change relative to GFP (GFPTrap beads): 1.64 fold change
[2]; Rep 2
  fold change relative to GFP (GFPTrap beads): 0.68 fold change
[2]; Rep 3
  fold change relative to GFP (GFPTrap beads): 1.36 fold change
[2]; replicate 1
  GFPTrap beads RLUs: 115.391 RLUs
[2]; replicate 2
  GFPTrap beads RLUs: 47.845 RLUs
[2]; replicate 3
  GFPTrap beads RLUs: 95.69 RLUs
[2]; vs. GFP
  95% confidence interval of difference (IP): 0.1175 to 0.8825
  Difference between means (IP): 0.5000 ± 0.1202
[3]; input lysates GFP vs INS vs RHO, Rep1
  fold change in caspase 8 activity relative to GFP: 2.597 fold
[3]; input lysates GFP vs INS vs RHO, Rep2
  fold change in caspase 8 activity relative to GFP: 2.0013 fold
[3]; input lysates GFP vs INS vs RHO, average of Rep1 and Rep2
  avg fold change in caspase 8 activity relative to GFP: 2.299 fold
[3]; lysate inputs, relative to GFP, n=2
  Mean ± SEM (lysate inputs): 2.299 ± 0.2977, n=2
[3]; dilution 0.025
  norm RLUs: 1827.1 RLUs
[3]; dilution 0.05
  norm RLUs: 3654.19 RLUs
[3]; dilution 0.1
  norm RLUs: 8264.86 RLUs
[3]; vs. GFP
  95% confidence interval of difference (lysate inputs): 0.01818 to 2.580
  Difference between means (lysate inputs): 1.299 ± 0.2977
DR5; sheet 2018-04-13 rep 2
  fraction of DR5 IP'ed: 0.03271
DR5; sheet 2018-09-20 rep 1
  fraction of DR5 IP'ed: 0.01265
DR5; Rep 1 (second series)
  fraction IP'ed: 0.03271
DR5; Rep 2 (second series)
  fraction IP'ed: 0.01265
DR5; average of all replicates
  % IP'ed: 2.268%
  fraction IP'ed, average: 0.02268
DR5; unpaired t test sheet, GFP n=5, MPZ n=3, INS n=2, RHO n=2
  Mean ± SEM (fraction IP'ed): 0.02268 ± 0.01003, n=2
DR5; vs. GFP, fraction IP'ed
  95% confidence interval (difference between means): -0.02195 to 0.04688
DR5; vs. GFP, fraction IP'ed, ± SEM
  Difference between means: 0.01247 ± 0.01339
